Patent US20060281763A1, “Carboxamide inhibitors of TGFbeta” (priority 2005, published 2006)

The compounds below were run against T1, TGFβ R1 (Homo sapiens, UniProt P36897) (assay: TGFβ R1 autophosphorylation protocol (33P-ATP, phosphocellulose filter plate)). Conditions: 10 uM ATP, 170 nM TGFβ R1, 20 minutes at room temperature, read-out: IC50 for Kinase Inhibition.
T1 sequence (P36897 34-503): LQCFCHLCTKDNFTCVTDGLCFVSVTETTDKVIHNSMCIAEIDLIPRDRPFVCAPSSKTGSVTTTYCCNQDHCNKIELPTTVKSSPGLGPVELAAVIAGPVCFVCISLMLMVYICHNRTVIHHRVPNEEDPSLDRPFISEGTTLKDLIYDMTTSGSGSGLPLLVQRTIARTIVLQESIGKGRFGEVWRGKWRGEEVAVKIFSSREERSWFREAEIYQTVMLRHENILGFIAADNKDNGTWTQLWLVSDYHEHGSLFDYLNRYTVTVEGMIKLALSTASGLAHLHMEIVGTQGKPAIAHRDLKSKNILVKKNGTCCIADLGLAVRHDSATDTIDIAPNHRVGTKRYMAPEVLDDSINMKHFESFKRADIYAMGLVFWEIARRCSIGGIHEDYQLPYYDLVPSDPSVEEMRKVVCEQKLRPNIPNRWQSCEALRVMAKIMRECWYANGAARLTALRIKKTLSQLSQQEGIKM
Format: biochemical
Method: The compounds of the invention were tested for their ability to inhibit TGFβ by a TGFβ R^1 autophosphorylation protocol. This was conducted as follows: Compound dilutions and reagents were prepared fresh daily. Compounds were diluted from DMSO stock solutions to 2 times the desired assay concentration, keeping final DMSO concentration in the assay less than or equal to 1%. TGFβ R1 was diluted to 4 times the desired assay concentration in buffer+DTT. ATP was diluted into 4× reaction buffer, and gamma-^33P-ATP was added at 60 uCi/mL.
The assay was performed by adding 10 ul of the enzyme to 20 ul of the compound solution. The reaction was initiated by the addition of 10 ul of ATP mix. Final assay conditions included 10 uM ATP, 170 nM TGFβ R1, and […] in 20 mM MOPS, pH7. The reactions were incubated at room temperature for 20 minutes. The reactions were stopped by transferring 23 ul of reaction mixture onto a phosphocellulose 96-well filter plate, which had been pre-wetted with 15 ul of 0.25M H3PO4 per well. After 5 minutes, the wells were washed 4× with 75 mM H3PO4 and once with 95% ethanol. The plate was dried, scintillation cocktail was added to each well, and the wells were counted in a Packard TopCount microplate scintillation counter.

IC50 [nM]	SMILES
370	COc1cnc(-c2cc(Cl)ccc2F)nc1Nc1ccncc1C(=O)NCC1CCCC[C@H]1O (stereo in doubt) [Compound 31, 4-[2-(5-Chloro-2-fluoro-phenyl)-5-methoxy-pyrimidin-4-ylamino]-N-(2-hydroxy-cyclohexylmethyl)-nicotinamide]
60	COc1cnc(-c2cc(Cl)ccc2F)nc1Nc1ccncc1C(=O)NCCCNC(=O)COC1O[C@H](CO)[C@@H](O)[C@H](O)[C@H]1O (stereo in doubt) [Compound 135, 4-[2-(5-Chloro-2-fluoro-phenyl)-5-methoxy-pyrimidin-4-ylamino]-N-{3[2-(3,4,5-trihydroxy-6-hydroxymethyl-tetrahydro-pyran-2-yloxy)-acetylamino]-propyl)-nicotinamide]
40	CCOC(=O)CNC(=O)c1cnccc1Nc1nc(-c2cc(Cl)ccc2F)ncc1OC [Compound 1, ({4-[2-(5-Chloro-2-fluoro-phenyl)-5-methoxy-pyrimidin-4-ylamino]pyridine-3-carbonyl}-amino)-acetic acid ethyl ester]
920	COc1cnc(-c2cc(Cl)ccc2F)nc1Nc1ccncc1C(=O)NCC(=O)O [Compound 2, ({4-[2-(5-Chloro-2-fluoro-phenyl)-5-methoxy-pyrimidin-4-ylamino]-pyridine 3-carbonyl}-amino)-acetic acid]
20	COc1cnc(-c2cc(Cl)ccc2F)nc1Nc1ccncc1C(=O)NCCNCC(C)O (stereo not shown) [Compound 5]
10	COc1cnc(-c2cc(Cl)ccc2F)nc1Nc1ccncc1C(=O)NCCNCCO [Compound 6, 4-[2-(5-Chloro-2-fluoro-phenyl)-5-methoxy-pyrimidin-4-ylamino]-N-[2-(2-hydroxy-ethylamino)-ethyl]-nicotinamide]
30	COc1cnc(-c2cc(Cl)ccc2F)nc1Nc1ccncc1C(=O)NCCCN(C)C [Compound 7, 4-[2-(5-Chloro-2-fluoro-phenyl)-5-methoxy-pyrimidin-4-ylamino]-N-(3-dimethylamino-propyl)-nicotinamide]
60	COc1cnc(-c2cc(Cl)ccc2F)nc1Nc1ccncc1C(=O)NC1CCN(C(=O)OC(C)(C)C)CC1 [Compound 8, 4-({4-[2-(5-Chloro-2-fluoro-phenyl)-5-methoxy-pyrimidin-4-ylamino]-pyridine-3-carbonyl}-amino)-piperidine-1-carboxylic acid tert-butyl ester]
30	COc1cnc(-c2cc(Cl)ccc2F)nc1Nc1ccncc1C(=O)NCCCN1CCOCC1 [Compound 9, 4-[2-(5-Chloro-2-fluoro-phenyl)-5-methoxy-pyrimidin-4-ylamino]-N-(3-morpholin-4-yl-propyl)-nicotinamide]
60	COc1cnc(-c2cc(Cl)ccc2F)nc1Nc1ccncc1C(=O)NCCCn1ccnc1 [Compound 10, 4-[2-(5-Chloro-2-fluoro-phenyl)-5-methoxy-pyrimidin-4-ylamino]-N-(3-inidazol-1-yl-propyl)-nicotinamide]
120	COc1cnc(-c2cc(Cl)ccc2F)nc1Nc1ccncc1C(=O)NCCCN1CCCC1=O [Compound 11, 4-{2-(5-Chloro-2-fluoro-phenyl)-5-methoxy-pyrimidin-4-ylamino]-N-[3-(2-oxo-pyrrolidin-1-yl)-propyl]-nicotinamide]
60	COc1cnc(-c2cc(Cl)ccc2F)nc1Nc1ccncc1C(=O)NCCCN1CCCCC1C (stereo not shown) [Compound 12, 4-[2-(5-Chloro-2-fluoro-phenyl)-5-methoxy-pyrimidin-4-ylamino]-N-[3-(2-methyl-piperidin-1-yl)-propyl]-nicotinamide]
120	COc1cnc(-c2cc(Cl)ccc2F)nc1Nc1ccncc1C(=O)NCCCNCCNC(C)C [Compound 14]
180	O=C(NC1CC1)c1cnccc1Nc1nc(-c2cc(Cl)ccc2F)ncc1N1CCCC1 [Compound 21, 4-[2-(5-Chloro-2-fluoro-phenyl)-5-pyrrolidin-1-yl-pyrimidin-4-ylamino]-N-cyclopropyl-nicotinamide]
100	CNCCNC(=O)c1cnccc1Nc1nc(-c2cc(Cl)ccc2F)ncc1N1CCCC1 [Compound 22, 4-[2-(5-Chloro-2-fluoro-phenyl)-5-pyrrolidin-1-yl-pyrimidin-4-ylamino]-N-(2-methylamino-ethyl)-nicotinamide]
200	CC(C)NCCNC(=O)c1cnccc1Nc1nc(-c2cc(Cl)ccc2F)ncc1N1CCCC1 [Compound 23, 4-[2-(5-Chloro-2-fluoro-phenyl)-5-pyrrolidin-1-yl-pyrimidin-4-ylamino]-N-(2-isopropylamino-ethyl)-nicotinamide]
490	O=C(NCCO)c1cnccc1Nc1nc(-c2cc(Cl)ccc2F)ncc1N1CCCC1 [Compound 24, 4-[2-(5-Chloro-2-fluoro-phenyl)-5-pyrrolidin-1-yl-pyrimidin-4-ylamino]-N-(2-hydroxy-ethyl)-nicotinamide]
200	O=C(NCCN1CCCC1)c1cnccc1Nc1nc(-c2cc(Cl)ccc2F)ncc1N1CCCC1 [Compound 26, 4-[2-(5-Chloro-2-fluoro-phenyl)-5-pyrrolidin-1-yl-pyrimidin-4-ylamino]-N-(2-pyrrolidin-1-yl-ethyl)-nicotinamide]
30	COc1cnc(-c2cc(Cl)ccc2F)nc1Nc1ccncc1C(=O)NCCCN1CCCC1 [Compound 29]
2370	COc1cnc(-c2cc(Cl)ccc2F)nc1Nc1ccncc1C(=O)NCC1CN(Cc2ccccc2)CCO1 (stereo not shown) [Compound 30, N-(4-Benzyl-morpholin-2-ylmethyl)-4-[2-(5-chloro-2-fluoro-phenyl)-5-methoxy-pyrimidin-4-ylamino)-nicotinamide]
560	COc1cnc(-c2cc(Cl)ccc2F)nc1Nc1ccncc1C(=O)NCCNC(=O)OC(C)(C)C [Compound 32, [2-({4-[2-(5-Chloro-2-fluoro-phenyl)-5-methoxy-pyrimidin-4-ylamino]-pyridine-3-carbonyl}-amino)-ethyl]-carbamic acid tert-butyl ester]
1130	COc1cnc(-c2cc(Cl)ccc2F)nc1Nc1ccncc1C(=O)NCCCNC(=O)OC(C)(C)C [Compound 33, [3-({4-[2-(5-Chloro-2-fluoro-phenyl)-5-methoxy-pyrmidin-4-ylamino]-pyridine-3-carbonyl}-amino)-propyl]-carbamic acid tert-butyl ester]

SMILES	IC50 [nM]
COc1cnc(-c2cc(Cl)ccc2F)nc1Nc1ccncc1C(=O)NCCCNCCOC1O[C@H](COC(C)=O)[C@@H](OC(C)=O)[C@H](OC(C)=O)[C@H]1OC(C)=O (stereo in doubt) [Compound 132, Acetic acid 3,4,5-triacetoxy-6-{2-[3-({4-[2-(5-chloro-2-fluoro-phenyl)-5-methoxy-pyrimidin-4-ylamino]-pyridine-3-carbonyl)-amino)-propylamino]-ethoxy}-tetrahydro-pyran-2-ylmethyl ester]	32

Same assay, conditions: 10 uM ATP, 170 nM TGFβ R1, room temperature 20 minutes, read-out: IC50 for Kinase Inhibition

IC50 [nM]	SMILES
5	CC(C)c1cnc(-c2cc(Cl)ccc2F)nc1Nc1ccncc1C(=O)NC1C[C@@H]1CO (stereo in doubt) [Compound 215, 4-[2-(5-Chloro-2-fluoro-phenyl)-5-isopropyl-pyrimidin-4-ylamino]-N-(2-hydroxymethyl-cyclopropyl)-nicotinamide]
10	CC(C)c1cnc(-c2cc(Cl)ccc2F)nc1Nc1ccncc1C(=O)NC1C[C@H]1CO (stereo in doubt) [Compound 216, 4-[2-(5-Chloro-2-fluoro-phenyl)-5-isopropyl-pyrimidin-4-ylamino]-N-(2-hydroxymethyl-cyclopropyl)-nicotinamide]
7700	CC(C)c1cnc(-c2cc(Cl)ccc2F)nc1Nc1ccncc1C(=O)N[C@@H]1CCC[C@H]1OCc1ccccc1 (stereo in doubt) [Compound 222, N-(2-Benzyloxy-cyclopentyl)-4-[2-(5-chloro-2-fluoro-phenyl)-5-isopropyl-pyrimidin-4-ylamino]-nicotinamide]
7140	CC(C)c1cnc(-c2cc(Cl)ccc2F)nc1Nc1ccncc1C(=O)NC1CCC[C@@H]1OCc1ccccc1 (stereo in doubt) [Compound 223, N-(2-Benzyloxy-cyclopentyl)-4-[2-(5-chloro-2-fluoro-phenyl)-5-isopropyl-pyrimidin-4-ylamino]-nicotinamide]
40	CC(C)c1cnc(-c2cc(Cl)ccc2F)nc1Nc1ccncc1C(=O)N[C@H]1CCC[C@@H]1O (stereo in doubt) [Compound 235, 4-[2-(5-Chloro-2-fluoro-phenyl)-5-isopropyl-pyrimidin-4-ylamino]-N-(2-hydroxy-cyclopentyl)-nicotinamide]
